Results taken from paper PMC11703096 (PLOS ONE, 2025).

Experiments:
[1] = target: T1, A32WT (vaccinia virus A32, putative genome packaging ATPase) (Vaccinia virus WR, UniProt P68615, L234K/Q237A); conditions: read-out: A32LL234K_Q237A / - / DNA
T1 construct: gene OPG160

[2] = target: T2, A32WT (vaccinia virus A32, putative genome packaging ATPase) (Vaccinia virus WR, UniProt P68615, K31A); conditions: read-out: A32K31A / - / DNA
T2 construct: gene OPG160

native gel or EMSA = target: the molecule itself; test: native gel or EMSA

Molecule | Km [1] | Km [2] | binding result (native gel or EMSA)
Nc1ncnc2c1ncn2[C@@H]1O[C@H](COP(=O)(O)OP(=O)(O)OP(=O)(O)O)[C@@H](O)[C@H]1O [ATP] | 0.66 µM | 0.2 µM | –
vaccinia virus A32 protein with an N-terminal thioredoxin tag and a C-terminal hexahistidine tag (A32WT) (enzyme) MNCFQEKQFSRENLLKMPFRMVLTGGSGSGKTIYLLSLFSTLVKKYKHIFLFTPVYNPDYDGYIWPNHINFVSSQESLEYNLIRTKSNIEKCIAVAQNHKKSAHFLLIFDDVGDKLSKCNTLIEFLNFGRHLNTSIILLCQTYRHVPILGRANITHFCSFNISISDAENMLRSMPVKGKRKDILNMLNMIQTARSNNRLAIIIEDSVFCEGELRICTDTADKDVIEQKLNIDILVNQYSHMKKNLNAILESKKTKLCNSDQSSSSKNVSS | – | – | binds
